{
  "source": "patent US9044424B2",
  "about": "“Methods of regulating glucose metabolism, and reagents related thereto” (Trustees of Tufts College, priority 1998, dated 2015)",
  "key": {"DP-IV": {"molecular_target": "DP-IV (Homo sapiens, UniProt P27487)", "sequence (P27487 whole entry)": "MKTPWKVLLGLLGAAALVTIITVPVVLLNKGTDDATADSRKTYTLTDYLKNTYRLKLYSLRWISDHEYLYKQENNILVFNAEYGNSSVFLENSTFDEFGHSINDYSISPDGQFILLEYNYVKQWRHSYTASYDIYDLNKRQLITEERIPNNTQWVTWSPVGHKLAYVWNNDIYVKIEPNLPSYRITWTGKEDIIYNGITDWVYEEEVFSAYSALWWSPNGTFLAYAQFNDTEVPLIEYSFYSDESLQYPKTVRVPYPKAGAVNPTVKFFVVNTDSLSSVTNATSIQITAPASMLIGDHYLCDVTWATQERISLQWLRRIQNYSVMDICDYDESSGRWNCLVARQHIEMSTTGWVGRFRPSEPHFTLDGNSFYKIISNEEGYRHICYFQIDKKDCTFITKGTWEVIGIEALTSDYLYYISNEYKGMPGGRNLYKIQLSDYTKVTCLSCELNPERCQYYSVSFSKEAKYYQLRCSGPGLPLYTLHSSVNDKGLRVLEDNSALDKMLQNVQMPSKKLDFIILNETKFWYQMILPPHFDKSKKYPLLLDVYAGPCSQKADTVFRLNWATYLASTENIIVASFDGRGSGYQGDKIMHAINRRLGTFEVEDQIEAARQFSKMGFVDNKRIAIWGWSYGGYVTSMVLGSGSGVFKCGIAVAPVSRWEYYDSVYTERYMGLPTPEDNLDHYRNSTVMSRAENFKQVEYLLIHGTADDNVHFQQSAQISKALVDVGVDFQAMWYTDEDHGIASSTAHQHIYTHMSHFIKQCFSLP", "experiment": "DP-IV inhibition / affinity", "protocol": "As an illustrative embodiment, the ability of a test agent to inhibit DPIV can be assessed using a colorimetric or fluorometric substrate, such as Ala-Pro-paranitroanilide.\nAn illustrative reaction mixture includes 50 μM sodium Hepes (pH7.8), 10 μM Ala-Pro-paranitroanilide, 6 milliunits of DPIV, and 2% (v/v) dimethylformamide in a total volume of 1.0 mL. The reaction is initiated by addition of enzyme, and formation of reaction product (paranitroanilide) in the presence and absence of a test compound can be detected photometrically, e.g., at 410 nm."}, "mice": {"tested_on": "mice", "experiment": "Oral glucose tolerance test in mice", "format": "in vivo", "details": "for glucose levels in blood / glucose control: single injection alone, one hour prior to oral glucose challenge, FIG. 3; for response to a sub-therapeutic dose of GLP-1: single injection, with 8 μg GLP-1", "description": "The first two experiments are “acute” experiments wherein the mice were injected with a single dose of Pro-boro-pro. In the first set of experiments mice were injected with 150 μg of Pro-boro-pro (PBP-1) and then subjected to an oral glucose tolerance test within an hour. […] In a second set of experiments mice were injected with Pro-boro-pro (PBP-2) one hour prior to an oral glucose challenge test. FIG. 3 presents the results of these experiments. Each set of experiments was also performed using saline as a control.\nThe third set of experiments were “chronic” experiments, wherein the mice were injected twice daily with Pro-boro-pro for four days, followed by an oral glucose challenge."}, "[1]": {"details": "cited from earlier work"}, "[2]": {"details": "chronic (>5 days) treatment alone"}},
  "note": "Where two headings read alike, the source gives them in different places.",
  "data": [
    {"molecule": "CC(NC(=O)OC(C)(C)C)C(=O)N1CCCC1B(O)O", "note": "(stereo not drawn) [Boc-blocked Ala-boroPro, Boc-Ala-boroPro]", "values": [
      {"measurement": "affinity for DP-IV", "setting": "DP-IV", "result": "no affinity"}
    ]},
    {"molecule": "O=C(C1CCCN1)N1CCCC1B(O)O", "note": "(stereo not shown) [Pro-boro-pro]", "values": [
      {"measurement": "fasting blood sugars", "setting": "mice; [2]", "result": "lowers"},
      {"measurement": "glycemic excursion to oral glucose challenge", "setting": "mice; [2]", "result": "lowers"},
      {"measurement": "blood sugar levels", "setting": "mice; chronic: injected twice daily for four days, then oral glucose challenge, FIG. 4", "result": "lowering of the blood sugar levels"},
      {"measurement": "blood sugar", "setting": "mice; oral glucose challenge in mice, overall statement", "result": "clearly lowers blood sugar"},
      {"measurement": "glucose levels in blood (glucose tolerance curve)", "setting": "mice; single injection 150 μg, oral glucose tolerance test within an hour, 8 μg GLP-1 five minutes prior to glucose, FIG. 2", "result": "improves glucose levels in blood"},
      {"measurement": "glucose levels in blood / glucose control", "setting": "mice", "result": "alone sufficient to improve glucose control"},
      {"measurement": "glucose levels in blood / glucose control", "setting": "mice; listed as PBP-2", "result": "improves glucose levels in blood"},
      {"measurement": "response to a sub-therapeutic dose of GLP-1", "setting": "mice; FIG. 2", "result": "potentiate the response to a subtherapeutic dose of GLP-1"},
      {"measurement": "response to a sub-therapeutic dose of GLP-1", "setting": "mice; FIG. 2, listed as PBP-1", "result": "potentiates the response to a sub-therapeutic dose of GLP-1"}
    ]},
    {"molecule": "L-Ala-L-boroPro-pinacol", "values": [
      {"measurement": "extent of DP-IV inhibition", "setting": "DP-IV; silica gel fractions compared at equal concentrations", "result": "inhibits DP-IV to a greater extent than later fractions"}
    ]},
    {"molecule": "glucagon-like peptide-1 [GLP-1]", "values": [
      {"measurement": "metabolite share of the increase in plasma immunoreactivity (COOH-terminal RIA)", "setting": "[1]; thirty minutes after subcutaneous GLP-1, diabetic patients (n=8)", "result": "88.5+1.9%"},
      {"measurement": "metabolite share of the increase in plasma immunoreactivity (COOH-terminal RIA)", "setting": "[1]; thirty minutes after subcutaneous GLP-1, healthy subjects (n=8)", "result": "78.4+3.2%"}
    ]}
  ]
}
